# Source: patent publication US10668043B2, “Potentiated antimicrobial agents” (priority 2014, dated 2020)
# Read-outs that look alike come from different tables or passages of the source.
# Key:
# Pasteurella = experiment: etest on agar containing the booster; assay type: cell-based
# Source text: (§1) The corresponding tests are made based on the usual MIC test: the etest® (Biomerieux) strip is deposited onto the surface of a seeded agar medium in which the booster has been incorporated.
# (§2) The control corresponds to the test made without cineol. A control is made in each solvent tested: distilled water, Tween/water and DMSO. • ED control=antibiotic alone in distilled water • DMSO control=antibiotic alone in DMSO • TE control=antibiotic alone in Tween® 80
# Other e-tests are also made on Pasteurella.
# Strain 10168/MRSA = experiment: Resistance: occurrence of resistant mutants; assay type: cell-based, S. aureus; settings: 4 times the MIC; 48 h incubation; DMSO
# Experimental: (§3) After 48 h incubation, the presence or absence of colonies likely to be resistant mutants is observed.
# Strain 9003/BLSE = experiment: Resistance: occurrence of resistant mutants; assay type: cell-based; settings: 4 times the MIC; 48 h incubation; DMSO
# Experimental: as §3
# Staphylococcus = experiment: etest on agar containing the booster; assay type: cell-based; settings: MRSA 10178
# Source text: as §1, with “incorporated. This test enables solvent effect risks, that is a possible interaction with the solvent used in vitro, to be minimised.” for “incorporated.”
# as §2
# E. coli = experiment: etest on agar containing the booster; assay type: cell-based; settings: Escherichia coli
# Source text: as §1, with “incorporated. This test enables solvent effect risks, that is a possible interaction with the solvent used in vitro, to be minimised.” for “incorporated.”
# as §2
# MSSA 8238 = settings: Sc.; gentamycin 6 mg/kg or amoxicillin 30 mg/kg, cineol 30 mg/kg where present
# Experimental: To Balb/c mice, is injected (Sc.) the antimicrobial product or the antimicrobial+booster mixture.
# At different post-injection times, the mice are euthanised, and blood sampled, heparined and centrifuged to extract plasma thereof
# Antibacterial effects are measured after 24 h incubation. The successive dilutions enable the antimicrobial effect to be determined and compared with the MIC. The efficient concentration/MIC ratio is thus determined.
# [1] = mouse, intravenous; cited from earlier work
# [2] = orally; two mammal species (cats and rats); cited from earlier work
# [3] = strain 14012, 5 mg cineol water
# [4] = strain 14012, 10 mg cineol DMSO
# [5] = strain 14012, 10 mg cineol water
# [6] = DMSO control (antibiotic alone)
# [7] = ED control (antibiotic alone in distilled water)
# [8] = Tween water control (antibiotic alone)
# [9] = Coli 8150, Cineol 1 mg DMSO, read-out: MIC
# [10] = Coli 8150, Cineol 1 mg Tween/water, read-out: MIC
# [11] = Coli 8150, Cineol 4 mg DMSO, read-out: MIC
# [12] = Coli 8150, Cineol 4 mg Tween/water, read-out: MIC
# [13] = Coli 8150, Cineol 16 mg DMSO, read-out: MIC
# [14] = Coli 8150, Cineol 16 mg Tween/water, read-out: MIC
# [15] = Coli 8150, DMSO control (antibiotic alone), read-out: MIC
# [16] = Coli 8150, ED control (antibiotic alone in distilled water), read-out: MIC
# [17] = Coli 8150, Tween water control (antibiotic alone), read-out: MIC
# [18] = strain 14014, 5 mg cineol water
# [19] = strain 14014, 10 mg cineol DMSO
# [20] = strain 14014, 10 mg cineol water
compound,measurement,setting,value
"O=C(O)c1cn(C2CC2)c2cc(N3CCNCC3)c(F)cc2c1=O [Ciprofloxacin, ciprofloxacin]",MIC (e-test),"Pasteurella; strain 14012, 5 mg cineol DMSO",0.004 µg/mL
same,MIC (e-test),"Pasteurella; strain 14012, 5 mg cineol TE",0.004 µg/mL
same,MIC (e-test),Pasteurella; [3],0.003 µg/mL
same,MIC (e-test),Pasteurella; [4],0.004 µg/mL
same,MIC (e-test),"Pasteurella; strain 14012, 10 mg cineol TE",0.006 µg/mL
same,MIC (e-test),Pasteurella; [5],0.004 µg/mL
same,MIC (e-test),"Pasteurella; strain 14012, DMSO control",0.006 µg/mL
same,MIC (e-test),"Pasteurella; strain 14012, ED control",0.004 µg/mL
same,MIC (e-test),"Pasteurella; strain 14012, TE control",0.006 µg/mL
same,MIC (e-test),"Pasteurella; strain 14013, 5 mg cineol DMSO",0.012 µg/mL
same,MIC (e-test),"Pasteurella; strain 14013, 5 mg cineol TE",0.012 µg/mL
same,MIC (e-test),"Pasteurella; strain 14013, 5 mg cineol water",0.012 µg/mL
same,MIC (e-test),"Pasteurella; strain 14013, 10 mg cineol DMSO",0.012 µg/mL
same,MIC (e-test),"Pasteurella; strain 14013, 10 mg cineol TE",0.012 µg/mL
same,MIC (e-test),"Pasteurella; strain 14013, 10 mg cineol water",0.016 µg/mL
same,MIC (e-test),"Pasteurella; strain 14013, DMSO control",0.012 µg/mL
same,MIC (e-test),"Pasteurella; strain 14013, ED control",0.012 µg/mL
same,MIC (e-test),"Pasteurella; strain 14013, TE control",0.016 µg/mL
same,colonies likely to be resistant mutants,Strain 10168/MRSA,invaded
same,colonies likely to be resistant mutants,Strain 9003/BLSE,Numerous
CC1(C)S[C@@H]2[C@H](NC(=O)Cc3ccccc3)C(=O)N2[C@H]1C(=O)O [Penicillin G],MIC,Staphylococcus; Cineol 1 mg DMSO,0.75^+ mg/L
same,MIC,Staphylococcus; Cineol 1 mg Tween/water,0.5 µg/mL
same,MIC,Staphylococcus; Cineol 4 mg DMSO,0.5^+ mg/L
same,MIC,Staphylococcus; Cineol 4 mg Tween/water,0.38^+ mg/L
same,MIC,Staphylococcus; Cineol 16 mg DMSO,0.19^+ mg/L
same,MIC,Staphylococcus; Cineol 16 mg Tween/water,0.125^+ mg/L
same,MIC,Staphylococcus; [6],1.5 µg/mL
same,MIC,Staphylococcus; [7],1 µg/mL
same,MIC,Staphylococcus; [8],0.5 µg/mL
CO[C@@]1(NC(=O)Cc2cccs2)C(=O)N2C(C(=O)O)=C(COC(N)=O)CS[C@@H]21 [Cefoxitin],MIC,"E. coli; Coli 8138 (penicillinase), Cineol 1 mg DMSO, read-out: MIC",4 µg/mL
same,MIC,"E. coli; Coli 8138 (penicillinase), Cineol 1 mg Tween/water, read-out: MIC",4 µg/mL
same,MIC,"E. coli; Coli 8138 (penicillinase), Cineol 4 mg DMSO, read-out: MIC",4 µg/mL
same,MIC,"E. coli; Coli 8138 (penicillinase), Cineol 4 mg Tween/water, read-out: MIC",3 µg/mL
same,MIC,"E. coli; Coli 8138 (penicillinase), Cineol 16 mg DMSO, read-out: MIC",4 µg/mL
same,MIC,"E. coli; Coli 8138 (penicillinase), Cineol 16 mg Tween/water, read-out: MIC",1 µg/mL
same,MIC,"E. coli; Coli 8138 (penicillinase), DMSO control (antibiotic alone), read-out: MIC",6 µg/mL
same,MIC,"E. coli; Coli 8138 (penicillinase), ED control (antibiotic alone in distilled water), read-out: MIC",6 µg/mL
same,MIC,"E. coli; Coli 8138 (penicillinase), Tween water control (antibiotic alone), read-out: MIC",6 µg/mL
same,MIC,E. coli; [9],8 µg/mL
same,MIC,E. coli; [10],3 µg/mL
same,MIC,E. coli; [11],3 µg/mL
same,MIC,E. coli; [12],3 µg/mL
same,MIC,E. coli; [13],3 µg/mL
same,MIC,E. coli; [14],1 µg/mL
same,MIC,E. coli; [15],8 µg/mL
same,MIC,E. coli; [16],3 µg/mL
same,MIC,E. coli; [17],6 µg/mL
same,MIC (e-test),"Pasteurella; strain 14012, 5 mg cineol DMSO",0.5 µg/mL
same,MIC (e-test),"Pasteurella; strain 14012, 5 mg cineol TE",0.5 µg/mL
same,MIC (e-test),Pasteurella; [3],0.5 µg/mL
same,MIC (e-test),Pasteurella; [4],0.38 µg/mL
same,MIC (e-test),"Pasteurella; strain 14012, 10 mg cineol TE",0.5 µg/mL
same,MIC (e-test),Pasteurella; [5],0.5 µg/mL
same,MIC (e-test),"Pasteurella; strain 14012, DMSO control",0.5 µg/mL
same,MIC (e-test),"Pasteurella; strain 14012, ED control",0.5 µg/mL
same,MIC (e-test),"Pasteurella; strain 14012, TE control",0.75 µg/mL
same,MIC (e-test),"Pasteurella; strain 14014, 5 mg cineol DMSO",0.19 µg/mL
same,MIC (e-test),"Pasteurella; strain 14014, 5 mg cineol TE",0.38 µg/mL
same,MIC (e-test),Pasteurella; [18],0.5 µg/mL
same,MIC (e-test),Pasteurella; [19],0.5 µg/mL
same,MIC (e-test),"Pasteurella; strain 14014, 10 mg cineol TE",0.38 µg/mL
same,MIC (e-test),Pasteurella; [20],0.38 µg/mL
same,MIC (e-test),"Pasteurella; strain 14014, DMSO control",0.38 µg/mL
same,MIC (e-test),"Pasteurella; strain 14014, ED Control",0.38 µg/mL
same,MIC (e-test),"Pasteurella; strain 14014, TE control",0.5 µg/mL
gentamycin,Time spent beyond the MIC,MSSA 8238,<5 h
C[C@@H](O)[C@H]1C(=O)N2C(C(=O)O)=C(S[C@@H]3CN[C@H](C(=O)N(C)C)C3)[C@H](C)[C@H]12 [Meropenem],MIC,E. coli; [9],0.064 µg/mL
same,MIC,E. coli; [10],0.064 µg/mL
same,MIC,E. coli; [11],0.064 µg/mL
same,MIC,E. coli; [12],0.047 µg/mL
same,MIC,E. coli; [13],0.064 µg/mL
same,MIC,E. coli; [14],0.1 µg/mL
same,MIC,E. coli; [15],0.094 µg/mL
same,MIC,E. coli; [16],0.047 µg/mL
same,MIC,E. coli; [17],0.094 µg/mL
same,MIC (e-test),"Pasteurella; strain 14012, 5 mg cineol DMSO",0.006 µg/mL
same,MIC (e-test),"Pasteurella; strain 14012, 5 mg cineol TE",0.008 µg/mL
same,MIC (e-test),Pasteurella; [3],0.006 µg/mL
same,MIC (e-test),Pasteurella; [4],0.006 µg/mL
same,MIC (e-test),"Pasteurella; strain 14012, 10 mg cineol TE",0.008 µg/mL
same,MIC (e-test),Pasteurella; [5],0.008 µg/mL
same,MIC (e-test),"Pasteurella; strain 14012, DMSO control",0.008 µg/mL
same,MIC (e-test),"Pasteurella; strain 14012, ED control",0.008 µg/mL
same,MIC (e-test),"Pasteurella; strain 14012, TE control",0.023 µg/mL
same,MIC (e-test),"Pasteurella; strain 14014, 5 mg cineol DMSO",0.012 µg/mL
same,MIC (e-test),"Pasteurella; strain 14014, 5 mg cineol TE",0.016 µg/mL
same,MIC (e-test),Pasteurella; [18],0.016 µg/mL
same,MIC (e-test),Pasteurella; [19],0.016 µg/mL
same,MIC (e-test),"Pasteurella; strain 14014, 10 mg cineol TE",0.012 µg/mL
same,MIC (e-test),Pasteurella; [20],0.016 µg/mL
same,MIC (e-test),"Pasteurella; strain 14014, DMSO control",0.016 µg/mL
same,MIC (e-test),"Pasteurella; strain 14014, ED Control",0.012 µg/mL
same,MIC (e-test),"Pasteurella; strain 14014, TE control",0.012 µg/mL
Cc1ccc(C(C)C)cc1O [carvacrol],LD 50,[1],80 mg/kg
same,lowest letal dose,[2],100 mg/kg
CN(C)c1cc(NC(=O)CNC(C)(C)C)c(O)c2c1C[C@H]1C[C@H]3[C@H](N(C)C)C(O)=C(C(N)=O)C(=O)[C@@]3(O)C(O)=C1C2=O [Tigecycline],MIC,"E. coli; Coli 8150, Cineol 1 mg DMSO",0.19 µg/mL
same,MIC,"E. coli; Coli 8150, Cineol 1 mg Tween/water",0.125 µg/mL
same,MIC,"E. coli; Coli 8150, Cineol 4 mg DMSO",0.125 µg/mL
same,MIC,"E. coli; Coli 8150, Cineol 4 mg Tween/water",0.094 µg/mL
same,MIC,"E. coli; Coli 8150, Cineol 16 mg DMSO",0.064 µg/mL
same,MIC,"E. coli; Coli 8150, Cineol 16 mg Tween/water",0.1 µg/mL
same,MIC,"E. coli; Coli 8150, DMSO control (antibiotic alone)",0.19 µg/mL
same,MIC,"E. coli; Coli 8150, ED control (antibiotic alone in distilled water)",0.125 µg/mL
same,MIC,"E. coli; Coli 8150, Tween water control (antibiotic alone)",0.125 µg/mL
same,MIC,Staphylococcus; Cineol 1 mg DMSO,0.19 µg/mL
same,MIC,Staphylococcus; Cineol 1 mg Tween/water,0.125 µg/mL
same,MIC,Staphylococcus; Cineol 4 mg DMSO,0.19 µg/mL
same,MIC,Staphylococcus; Cineol 4 mg Tween/water,0.094 µg/mL
same,MIC,Staphylococcus; Cineol 16 mg DMSO,0.125 µg/mL
same,MIC,Staphylococcus; Cineol 16 mg Tween/water,0.094 µg/mL
same,MIC,Staphylococcus; [6],0.25 µg/mL
same,MIC,Staphylococcus; [7],0.125 µg/mL
same,MIC,Staphylococcus; [8],0.125 µg/mL
CCC[C@@H]1C[C@@H](C(=O)N[C@@H]([C@H]2O[C@H](SC)[C@H](O)[C@@H](O)[C@H]2O)[C@H](C)Cl)N(C)C1 [Clindamycin],MIC,"Staphylococcus; Cineol 1 mg DMSO, read-out: MIC",0.094 µg/mL
same,MIC,"Staphylococcus; Cineol 1 mg Tween/water, read-out: MIC",0.064 µg/mL
same,MIC,"Staphylococcus; Cineol 4 mg DMSO, read-out: MIC",0.064 µg/mL
same,MIC,"Staphylococcus; Cineol 4 mg Tween/water, read-out: MIC",0.064 µg/mL
same,MIC,"Staphylococcus; Cineol 16 mg DMSO, read-out: MIC",0.047 µg/mL
same,MIC,"Staphylococcus; Cineol 16 mg Tween/water, read-out: MIC",0.047 µg/mL
same,MIC,"Staphylococcus; DMSO control (antibiotic alone), read-out: MIC",0.064 µg/mL
same,MIC,"Staphylococcus; ED control (antibiotic alone in distilled water), read-out: MIC",0.094 µg/mL
same,MIC,"Staphylococcus; Tween water control (antibiotic alone), read-out: MIC",0.19 µg/mL
